According to ChEMBL document CHEMBL1121820, “Synthesis and antitumor activity of simple vinyl and alpha-methylene-gamma-butyrolactone sulfonate esters and silyl enol ethers” (1981):

Assays:
[1] = system: B16; assay: Compound was studied in B16 test system for the antitumor activity expressed as percent maximum life span of animals at dose of 200 mg/kg; type: functional; conditions: Mus musculus
[2] = system: B16; assay: Compound was studied in B16 test system for the antitumor activity expressed as number of animals survived/Number of animals tested at dose of 200 mg/kg; […]; type: functional, Mus musculus
[3] = system: L1210; assay: Compound was studied in L1210 leukemia test system for the antitumor activity expressed as percent maximum life span of animals at dose of 400 mg/kg; type: functional; conditions: Mus musculus
[4] = system: L1210; assay: Compound was studied in L1210 leukemia test system for the antitumor activity expressed as number animals survived/Number of animals tested at dose of 400 mg/kg; 6/6; type: functional, Mus musculus
[5] = system: Lewis lung carcinoma cell line; assay: Compound was studied in LL test system for the antitumor activity expressed as number of animals survived/Number of animals tested at dose of 12.5 mg/kg; 10/10; type: functional, Mus musculus
[6] = system: Lewis lung carcinoma cell line; assay: Compound was studied in LL test system for the antitumor activity expressed as percent maximum life span of animals at dose of 12.5 mg/kg; type: functional; conditions: Mus musculus
[7] = system: Mus musculus; assay: Compound was studied in CD8F test system for the antitumor activity expressed as percent maximum life span of animals at dose of 250 mg/kg; type: functional
[8] = system: Mus musculus; assay: Compound was studied in CD8F test system for the antitumor activity expressed as number of animals survived/Number of animals tested at dose of 250 mg/kg; 10/10; type: functional
[9] = system: P388; assay: Compound was studied in P388 test system for the antitumor activity expressed as percent maximum life span of animals; type: functional, Mus musculus
[10] = system: P388; assay: Compound was studied in P388 test system for the antitumor activity expressed as number of animals survived/Number of animals tested at 200 mg/kg; 6/6; type: functional, Mus musculus
[11] = system: P388; assay: Compound was studied in P388 test system for the antitumor activity expressed as percent maximum life span of animals at a dose of 400 mg/kg; type: functional; conditions: Mus musculus
[12] = system: P388; assay: Compound was studied in P388 test system for the antitumor activity expressed as number of animals survived/Number of animals tested at a dose of 400 mg/kg; 5/5; type: functional, Mus musculus
[13] = system: P388; assay: Compound was studied in P388 test system for the antitumor activity expressed as percent maximum life span of animals at a dose of 100 mg/kg; type: functional; conditions: Mus musculus
[14] = system: P388; assay: Compound was studied in P388 test system for the antitumor activity expressed as number of animals survived/Number of animals tested at a dose of 100 mg/kg; 6/6; type: functional, Mus musculus
[15] = system: L1210; assay: Compound was studied in L1210 leukemia test system for the antitumor activity expressed as percent maximum life span of animals at dose of 25 mg/kg; type: functional; conditions: Mus musculus
[16] = system: L1210; assay: Compound was studied in L1210 leukemia test system for the antitumor activity expressed as number of animals survived/Number of animals tested at dose of 25 mg/kg; 5/6; type: functional, Mus musculus
[17] = system: P388; assay: Compound was studied in P388 test system for the antitumor activity expressed as percent maximum life span of animals at dose of 50 mg/kg; type: functional; conditions: Mus musculus
[18] = system: P388; assay: Compound was studied in P388 test system for the antitumor activity expressed as number of animals survived/Number of animals tested at dose of 50 mg/kg; 6/6; type: functional, Mus musculus
[19] = system: P388; assay: Compound was studied in P388 test system for the antitumor activity expressed as percent maximum life span of animals at a dose of 50 mg/kg; type: functional; conditions: Mus musculus
[20] = system: P388; assay: Compound was studied in P388 test system for the antitumor activity expressed as number of animals survived/Number of animals tested at a dose of 50 mg/kg; 6/6; type: functional, Mus musculus
[21] = system: L1210; assay: Compound was studied in L1210 leukemia test system for the antitumor activity expressed as percent maximum life span of animals at dose of 200 mg/kg; type: functional; conditions: Mus musculus
[22] = system: L1210; assay: Compound was studied in L1210 leukemia test system for the antitumor activity expressed as number animals survived/Number of animals tested at dose of 200 mg/kg; 6/6; type: functional, Mus musculus
[23] = system: L1210; assay: Compound was studied in L1210 leukemia test system for the antitumor activity expressed as percent maximum life span of animals at dose of 22.5 mg/kg; type: functional; conditions: Mus musculus
[24] = system: L1210; assay: Compound was studied in L1210 leukemia test system for the antitumor activity expressed as number of animals survived/Number of animals tested at dose of 22.5 mg/kg; 6/6; type: functional, Mus musculus
[25] = system: P388; assay: Compound was studied in P388 test system for the antitumor activity expressed as percent maximum life span of animals at dose of 120 mg/kg; type: functional; conditions: Mus musculus
[26] = system: P388; assay: Compound was studied in P388 test system for the antitumor activity expressed as number of animals survived/Number of animals tested at dose of 120 mg/kg; 6/6; type: functional, Mus musculus
[27] = system: L1210; assay: Compound was studied in L1210 leukemia test system for the antitumor activity expressed as number animals survived/Number of animals tested at dose of 25 mg/kg; 5/6; type: functional, Mus musculus
[28] = system: P388; assay: Compound was studied in P388 test system for the antitumor activity expressed as percent maximum life span of animals at dose of 37.5 mg/kg; type: functional; conditions: Mus musculus
[29] = system: P388; assay: Compound was studied in P388 test system for the antitumor activity expressed as number of animals survived/Number of animals tested at dose of 37.5 mg/kg; 6/6; type: functional, Mus musculus
[30] = system: P388; assay: Compound was studied in P388 test system for the antitumor activity expressed as number of animals survived/Number of animals tested at a dose of 100 mg/kg; 5/6; type: functional, Mus musculus
[31] = system: P388; assay: Compound was studied in P388 test system for the antitumor activity expressed as percent maximum life span of animals at a dose of 200 mg/kg; type: functional; conditions: Mus musculus
[32] = system: P388; assay: Compound was studied in P388 test system for the antitumor activity expressed as number of animals survived/Number of animals tested at a dose of 200 mg/kg; 5/6; type: functional, Mus musculus
[33] = system: L1210; assay: Compound was studied in L1210 leukemia test system for the antitumor activity expressed as number animals survived/Number of animals tested at dose of 200 mg/kg; 10/10; type: functional, Mus musculus
[34] = system: Mus musculus; assay: Compound was studied in CD8F test system for the antitumor activity expressed as percent maximum life span of animals at dose of 25 mg/kg; type: functional
[35] = system: Mus musculus; assay: Compound was studied in CD8F test system for the antitumor activity expressed as number of animals survived/Number of animals tested at dose of 25 mg/kg; 10/10
[36] = system: P388; assay: Compound was studied in P388 test system for the antitumor activity expressed as number of animals survived/Number of animals tested at a dose of 200 mg/kg; 6/6; type: functional, Mus musculus
[37] = system: L1210; assay: Compound was studied in L1210 leukemia test system for the antitumor activity expressed as percent maximum life span of animals at dose of 50 mg/kg; type: functional; conditions: Mus musculus
[38] = system: L1210; assay: Compound was studied in L1210 leukemia test system for the antitumor activity expressed as number animals survived/Number of animals tested at dose of 50 mg/kg; 6/6; type: functional, Mus musculus
[39] = system: P388; assay: Compound was studied in P388 test system for the antitumor activity expressed as percent maximum life span of animals at dose of 25 mg/kg; type: functional; conditions: Mus musculus
[40] = system: P388; assay: Compound was studied in P388 test system for the antitumor activity expressed as number of animals survived/Number of animals tested at dose of 25 mg/kg; 6/6; type: functional, Mus musculus

Q: With `C[Si](C)(C)O/C=C1\CCOC1=O` as the molecule, how does the ILS at 200 mg/kg [1] read?
A: 6%

Q: What about the Ratio [2] of the same molecule?
A: 10

Q: And the ILS at 400 mg/kg [3]?
A: 12%

Q: What about the Ratio [4] of the same molecule?
A: 6

Q: And the Ratio [5]?
A: 10

Q: And the ILS at 12.5 mg/kg [6]?
A: 16%

Q: What about the ILS at 250 mg/kg [7] of the same molecule?
A: 42%

Q: And the Ratio [8]?
A: 10

Q: And the ILS [9]?
A: 25%

Q: What about the Ratio [10] of the same molecule?
A: 6

Q: With `O=S(=O)(OC1=CCCCCC1)C(F)(F)F` as the molecule, how does the ILS at 400 mg/kg [11] read?
A: 15%

Q: And the Ratio [12]?
A: 5

Q: What does the source list for `C[Si](C)(C)OC=C1CCCCC1`?
A: ILS at 100 mg/kg [13]: 22%; Ratio [14]: 6

Q: Which results are given for `CS(=O)(=O)O/C=C1\CCOC1=O`?
A: ILS at 25 mg/kg [15]: 6%; Ratio [16]: 5; ILS at 50 mg/kg [17]: 32%; Ratio [18]: 6

Q: Which ILS at 50 mg/kg [19] does the source give for `CC(C)=COS(=O)(=O)C(F)(F)F` here?
A: -1%

Q: What about the Ratio [20] of the same molecule?
A: 6

Q: How did the ILS at 200 mg/kg [21] turn out when `O=C1O[C@@H]2CCCCC2/C1=C/OS(=O)(=O)C(F)(F)F` (stereo partly specified) was run?
A: 17%

Q: And the Ratio [22]?
A: 6

Q: With `CS(=O)(=O)O/C=C1\C(=O)O[C@@H]2CCCCC12` (stereo partly specified) as the molecule, how does the ILS at 22.5 mg/kg [23] read?
A: 11%

Q: And the Ratio [24]?
A: 6

Q: And the ILS at 120 mg/kg [25]?
A: 25%

Q: What about the Ratio [26] of the same molecule?
A: 6

Q: `O=C1OCC/C1=C\OS(=O)(=O)C(F)(F)F` was tested. Which ILS at 25 mg/kg [15] did it give?
A: 6%

Q: What about the Ratio [27] of the same molecule?
A: 5

Q: And the ILS at 37.5 mg/kg [28]?
A: 26%

Q: And the Ratio [29]?
A: 6

Q: For `C/C(=C\O[Si](C)(C)C)c1ccccc1`, which ILS at 100 mg/kg [13] is on record?
A: 8%

Q: What about the Ratio [30] of the same molecule?
A: 5

Q: Which results are given for `CC(C)=C(C)OS(=O)(=O)C(F)(F)F`?
A: ILS at 100 mg/kg [13]: 14%; Ratio [14]: 6

Q: How did the ILS at 50 mg/kg [19] turn out when `O=S(=O)(OC1=CCCCC1)C(F)(F)F` was run?
A: 14%

Q: And the Ratio [20]?
A: 6

Q: How did the ILS at 100 mg/kg [13] turn out when `O=S(=O)(OC(=C(c1ccccc1)c1ccccc1)c1ccccc1)C(F)(F)F` was run?
A: 16%

Q: What about the Ratio [14] of the same molecule?
A: 6

Q: With `O=S(=O)(O/C1=C/CCCCCC1)C(F)(F)F` as the molecule, how does the ILS at 200 mg/kg [31] read?
A: 14%

Q: What about the ILS at 100 mg/kg [13] of the same molecule?
A: 13%

Q: And the Ratio [14]?
A: 6

Q: What about the Ratio [32] of the same molecule?
A: 5

Q: Which Ratio [18] does the source give for `CCOC1=CC(=O)/C(=C/O[Si](C)(C)C)CC1` here?
A: 6

Q: `C[Si](C)(C)O/C=C1\CCCCC1=O` was tested. Which ILS at 200 mg/kg [21] did it give?
A: 5%

Q: What about the Ratio [33] of the same molecule?
A: 10

Q: And the ILS at 25 mg/kg [34]?
A: 21%

Q: What about the Ratio [18] of the same molecule?
A: 6

Q: And the Ratio [35]?
A: 1

Q: `O=S(=O)(OC=C1CCCCC1)C(F)(F)F` was tested. Which ILS at 200 mg/kg [31] did it give?
A: 12%

Q: And the Ratio [32]?
A: 5

Q: Which ILS at 200 mg/kg [31] does the source give for `CC(C)=CO[Si](C)(C)C` here?
A: 14%

Q: What about the Ratio [36] of the same molecule?
A: 6

Q: For `CC1(C)CC(=O)C=C(OS(=O)(=O)C(F)(F)F)C1`, which ILS at 50 mg/kg [37] is on record?
A: 3%

Q: And the Ratio [38]?
A: 6

Q: What about the ILS at 25 mg/kg [39] of the same molecule?
A: 12%

Q: What about the Ratio [40] of the same molecule?
A: 6
